From patent US20240352066A1, “ANTIMICROBIAL COMPOUNDS AND THE METHOD OF USE” (priority 2021, published 2024)
≈ marks a conversion by molar mass, not a printed value. Where a SMILES comes first, the peptide text is derived from it. [ ]: non-standard residue; d: D form. N(tridecyl)Gly = CCCCCCCCCCCCCNCC(=O)O; N(4-F-Bzl)Gly = O=C(O)CNCc1ccc(F)cc1; Gly(N-2-aminoethyl) = NCCNCC(=O)O; Nspe = C[C@H](NCC(=O)O)c1ccccc1; Nlys = NCCCCNCC(=O)O

Key:
[1] = test system: C. neoformans; format: cell-based, Cryptococcus neoformans; details: 72 h
Experimental: The minimum inhibitory concentration (MIC) of peptoids against fungal pathogens C. albicans and C. neoformans was determined following CLSI guidelines (CLSI. Reference method for broth dilution antifungal susceptibility testing of yeasts; approved standard-third edition; CLSI document M27-A3. (Clinical and Laboratory Standards Institute, 2008). […] This inoculant was diluted 1:100 into RPMI-MOPS and then further diluted 1:20 into RPMI-MOPS. 198 μL of inoculant was seeded into each well of a 96 well black-walled plate. 2-fold serial dilutions of 100× peptoid solutions were prepared in water and 2 μL of peptoid were added to each well in triplicate. […] MIC was defined as the lowest concentration of compound preventing fungal growth. This assay was repeated 3 times on separate days with each compound. […] The addition of 0.1 mL cell solution to 9.9 mL of RPMI-MOPS produced a 1:100 cell solution. After vortexing, 0.5 mL of the […] was added to 9.5 mL RPMI-MOPS to produce a 1:20 cell solution. 198 μL of the 1:20 solution was added to the wells of an opaque 96-well plate, apart from the wells designated for the medial control. […] Amphotericin B was used as a positive control, and sterile water was used for the vehicle control. The plates were incubated for 72 hours at 35° C. After incubation, the concentration of compound resulting in no visual growth was recorded as the MIC. All assays performed in biological triplicate on different days.

[2] = test system: human red blood cells (hRBC); assay: Hemolytic activity against human red blood cells; format: cell-based; details: Example 2; same donor sample of hRBCs
Experimental: Hemolytic activity was determined using single donor human red blood cells (hRBC). hRBCs were washed with PBS and centrifuged (1000 RPM; 10 minutes) three times, resuspended in PBS and aliquoted (100 μL) in 96 well plates. 2-fold serial dilutions of 10× peptoid final concentrations in PBS were prepared and added to wells in triplicate. PBS was used as a vehicle control and 1% Triton X-100 as a positive control. Plates were incubated for 1 hour (37° C.; 5% CO2) then centrifuged (1000 RPM; 10 minutes) and supernatant was diluted 1:20 into PBS in a new 96-well plate. Plates were read on a SpectraMax M5 plate reader (Abs. 405 nm). Percent hemolysis was determined by the following equation: […]
GraFit was used to determine concentrations at 50% hemolytic activity (HC50) and the Hill coefficient (H). Hemolytic activity at 10% (HC10) was then determined by the following equation: […]
The hemolytic activity of select peptoids was determined as done previously (Green et al. ACS medicinal chemistry letters 12 9, 1470-1477 (2021); Middleton et al. Bioorganic & medicinal chemistry letters 28 22, 3514-3519 (2018)). Selected peptoids were prepared in 2-fold serial dilutions in PBS at the desired concentrations. Human red blood cells (hRBCs, 9 mL) were centrifuged at 1000 rpm for 10 minutes, and the supernatant was removed and discarded. A 10 mL aliquot of PBS was used to resuspend the hRBCs which were centrifuged again at 1000 rpm for 10 minutes. This PBS wash was completed two more times for a total of three washes. A 9 mL aliquot of PBS was added to the hRBCs, and 100 μL of cell solution was added to individual wells of a 96-well plate. Peptoid solutions (11.1 μL) were added to the appropriate wells in triplicate. A vehicle control of PBS and positive control of 1% Triton X-100 were added to wells in triplicate.
The plate was incubated at 37° C. for 1 hour and centrifuged at 1000 rpm for 10 minutes. For each well, 5 μL of supernatant was transferred to 95 μL of PBS in a new 96-well plate. The absorbance at 405 nm was measured using a SpectraMax M5 Plate Reader, and the percent hemolysis was calculated as follows: […]

[3] = Mammalian cytotoxicity, MTT, HepG2; format: cell-based, human; details: human, HepG2 hepatocellular carcinoma cells
Experimental: Hepatocellular carcinoma (HepG2), mouse fibroblast (3T3), human lung (HPL1A), and human keratinocyte (HaCat) cells were cultured in Dulbecco modified eagle media (DMEM) containing 10% fetal bovine serum (FBS) and 1% penicillin, streptomycin, and glutamine (PSG) at 37° C. and 5% CO2. Cells were collected and adjusted to […] to 4×10^5 cells/mL in phenol-red free DMEM and plated (100 μL) 96 well plates. 2-fold serial dilutions of 10× peptoid (11.1 μL) were added to each well in triplicate. Water (vehicle) was used as a negative control. Plates were incubated at 37° C. in 5% CO2 for 72 hours. Thiazolyl blue tetrazolium bromide (MTT) was added to each well (5 mg/mL; 20 μL) and incubated for 3 hours. Media was removed, DMSO (100 μL) was added, and plates were incubated at 37° C. for 10 minutes. Plates were read on a SpectraMax M5 plate reader (Abs. 570 nm). The concentration of compound resulting in a 50% reduction in growth compared to control (toxicity dose 50%; TD50) was determined using GraFit. This procedure was repeated three times on separate days.
Cytotoxicity against HepG2 hepatocellular carcinoma cells was done as previously described (Green et al. ACS infectious diseases, (2022); Corson et al. ACS medicinal chemistry letters 7 12, 1139-1144 (2016)). HepG2 cells were maintained in culture in T-75 flasks using Dulbecco's Modified Eagle's Media (DMEM) with phenol red pH indicator and supplemented with 10% fetal bovine serum (FBS) and 1% penicillin, streptomycin, and glutamine (PSG). The cells were incubated at 37° C. and 5% CO2 in a humidified incubator until desired confluency was achieved. The media was removed from the flask, and the cells were washed 1× with 10 mL of phosphate-buffered saline (PBS; 11.8 mM phosphate, 140.4 mM NaCl; pH 7.4) which was then discarded. To remove the adhered cells from the flask, 2 mL of trypsin was added, and the cells were incubated for 10 minutes. To quench the trypsin, 8 mL of phenol red-free DMEM with 10% FBS and 1% PGS was added, and the cell solution was transferred to a 15 mL conical tube. After the cells were pelleted by centrifugation at 1000 rpm for 5 minutes, the supernatant was poured off and cells resuspended in the volume of phenol red-free media needed for the assay. Cell concentration was determined by counting with a hemocytometer, and the solution was diluted with media until a concentration of 1×10^5 cells/mL was achieved. A 100 μL aliquot of cell solution was added to each well of a 96-well plate, apart from the 3 wells used for a media control. Cells were incubated for 2-3 hours at 37° C. and 5% CO2 until cells were adherent.
Compound stocks of 20 mg/mL were used to prepare 2-fold serial dilutions of each compound in sterile water, giving final concentrations of 200, 100, 50, 25, 12.5, 6.25, 3.13 and 1.56 μg/mL. 11.1 μL of prepared compound solutions was added to the appropriate wells in triplicate. A negative vehicle control of sterile water, as well as the aforementioned media control, were used. The plates were incubated for 72 hours at 37° C. and 5% CO2. After incubation, 20 μL of 5 mg/mL 3-(4,5-dimethylthiazol-2-yl)-2,5-diphenyltetrazolium bromide (MTT) in water was added to each well. The plate was incubated for 3 hours at 37° C. and 5% CO2. Media was removed from each well using a sterile glass Pasteur pipette. 100 μL of DMSO was added to each well and incubated for 15 minutes at 37° C. Absorbance was read at 570 nm using a SpectraMax M5 Plate Reader. This MTT assay was performed in biological duplicate unless discrepant results were observed. If this was the case, the assay was performed in biological triplicate for further verification. The reported value is the average of biological replicates with standard deviation.

[4] = test system: C. albicans; assay: Peptoid library agar diffusion (PLAD) screening of library RGL8; format: cell-based, Candida albicans; details: RPMI-MOPS media
From the text: Antimicrobial peptoids of the present disclosure may have biological activity. Biological activity can be antimicrobial activity against a microbe, e.g., a fungal pathogen, a bacterial pathogen, or a combination thereof. A peptoid library agar diffusion (PLAD) assay may be used to identify peptoids that have antimicrobial activity (Fischer et al., ACS Comb. Sci. 18, 287-291 (2016); Corson et al., ACS Med. Chem. Lett. 7, 1139-1144 (2016); Turkett et al., ACS Comb. Sci. 18, 287-291 (2016)). The PLAD assay uses a PLAD chemical linker. […] Beads containing the PLAD linked peptoids are embedded in an agar medium where the agar medium is inoculated with the microbe of interest. The β-strand peptoid is released by a reducing reagent. The reducing agent cleaves a disulfide within the PLAD linker, allowing the β-strand peptoid to interact with microbes around the bead. If the released peptoid has antimicrobial activity, a zone of inhibited growth will be present. The α-strand peptoid remains attached to the bead during the screening process. […] The chemical cleavage of the α-strand peptoid is be accomplished at a C-terminal methionine of the PLAD linker using cyanogen bromide. […] The PLAD assay may be adapted to screen a peptoid of interest against different types of microbes of interest through slight modifications of the assay parameters. […]

In the case of `CCCCCCCCCCCCCNCC(=O)N(CC(=O)N(CCCCN)CC(=O)N(CCN)CC(=O)N(CC(N)=O)Cc1ccc(F)cc1)Cc1ccc(F)cc1` [Compound 17] (H-[N(tridecyl)Gly][N(4-F-Bzl)Gly][Nlys][Gly(N-2-aminoethyl)][N(4-F-Bzl)Gly]-NH2), the “C. neoformans MIC” value [1] is reported as 1.56 to 3.13 mg/L, the “hRBC HC10” value [2] is reported as 59 ± 22 µg/mL and the CC50 at 72 h [3] is reported as 150 ± 7 mg/L (≈ 184 µM).

In the case of Ntri-Ncha-Ncha-Ncha-Ncha, the “PLAD screening result (zone of inhibited fungal growth)” value [4] is reported as “hit”.

For `CCCCCCCCCCCCCNCC(=O)N(CC(=O)N(CCCCN)CC(=O)N(CCN)CC(=O)N(CC(N)=O)[C@@H](C)c1ccccc1)[C@@H](C)c1ccccc1` [Compound 16] (H-[N(tridecyl)Gly][Nspe][Nlys][Gly(N-2-aminoethyl)][Nspe]-NH2), the “C. neoformans MIC” value [1] was 1.56 to 3.13 mg/L, the “hRBC HC10” value [2] was 38 ± 11 µg/mL and the CC50 at 72 h [3] was 167 ± 104 mg/L (≈ 207 µM).
